Experimental data published in US10519154B2, “7-substituted 1-pyridyl-naphthyridine-3-carboxylic acid amides and use thereof” (Bayer Pharma Aktiengesellschaft, priority 2016, dated 2019).

Target: T1, human M2 receptor (Homo sapiens, UniProt P08172)
T1 sequence (P08172 1-466): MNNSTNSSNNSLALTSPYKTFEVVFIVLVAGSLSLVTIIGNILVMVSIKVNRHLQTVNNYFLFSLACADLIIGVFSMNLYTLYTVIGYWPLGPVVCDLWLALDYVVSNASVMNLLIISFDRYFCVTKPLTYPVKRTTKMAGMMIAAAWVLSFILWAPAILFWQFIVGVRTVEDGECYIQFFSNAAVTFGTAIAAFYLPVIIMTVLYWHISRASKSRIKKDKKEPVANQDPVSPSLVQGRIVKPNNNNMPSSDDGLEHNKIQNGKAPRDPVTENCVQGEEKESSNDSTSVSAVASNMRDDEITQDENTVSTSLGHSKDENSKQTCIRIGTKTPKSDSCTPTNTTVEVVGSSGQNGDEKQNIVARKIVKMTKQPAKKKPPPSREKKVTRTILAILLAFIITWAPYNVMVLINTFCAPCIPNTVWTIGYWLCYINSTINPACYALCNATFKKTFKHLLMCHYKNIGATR
Test: Functional M2-GIRK1/4 activation test: allosteric potency (EC50) and efficiency
Conditions: for EC50: Receptor activity EC50, CHO-DUKX-M2-GIRK cells, acetylcholine at EC20, in some cases mean of two or more determinations; for Emax: read-out: Efficiency, boosting of the acetylcholine effect at EC20 acetylcholine concentration; for Emax / Efficiency: CHO-DUKX-M2-GIRK cells; for Efficiency: boosting of the acetylcholine effect at EC20 acetylcholine concentration

CC(NC(=O)c1cn(-c2ncc(F)cc2F)c2nc(N3CCNC3=O)ccc2c1=O)C(F)(F)C(F)(F)F (single isomer, unassigned) [Example 162, 1-(3,5-Difluoropyridin-2-yl)-4-oxo-7-(2-oxoimidazolidin-1-yl)-N-[3,3,4,4,4-pentafluorobutan-2-yl]-1,4-dihydro-1,8-naphthyridine-3-carboxamide]
EC50: 24 nM
Emax: 96%

CC(NC(=O)c1cn(-c2ncc(F)cc2F)c2nc(N3CCNC3=O)ccc2c1=O)C(F)(F)C(F)(F)F (single isomer, unassigned) [Example 163, 1-(3,5-Difluoropyridin-2-yl)-4-oxo-7-(2-oxoimidazolidin-1-yl)-N-[3,3,4,4,4-pentafluorobutan-2-yl]-1,4-dihydro-1,8-naphthyridine-3-carboxamide]
EC50: 120 nM
Efficiency: 100.00%

CCC(NC(=O)c1cn(-c2ncc(F)cc2F)c2nc(N3CCNC3=O)ccc2c1=O)C(F)(F)C(F)(F)F (single isomer, unassigned) [Example 166, 1-(3,5-Difluoropyridin-2-yl)-4-oxo-7-(2-oxoimidazolidin-1-yl)-N-[1,1,1,2,2-pentafluoropentan-3-yl]-1,4-dihydro-1,8-naphthyridine-3-carboxamide]
EC50: 30 nM
Efficiency: 81.00%

CC(NC(=O)c1cn(-c2ncc(F)cc2F)c2nc(N3CCC[C@@H]3CO)ccc2c1=O)C(F)(F)C(F)(F)F (single isomer, unassigned) [Example 175]
EC50: 60 nM
Emax: 98.5%

CC(NC(=O)c1cn(-c2ncc(F)cc2F)c2nc(N3CCCC[C@@H]3CO)ccc2c1=O)C(F)(F)C(F)(F)F (single isomer, unassigned) [Example 176]
EC50: 28 nM
Emax: 100%

CC(NC(=O)c1cn(-c2ncc(F)cc2F)c2nc(N3CCC(O)(CO)CC3)ccc2c1=O)C(F)(F)C(F)(F)F (single isomer, unassigned) [Example 177, 1-(3,5-Difluoropyridin-2-yl)-7-[4-hydroxy-4-(hydroxymethyl)piperidin-1-yl]-4-oxo-N-(3,3,4,4,4-pentafluorobutan-2-yl)-1,4-dihydro-1,8-naphthyridine-3-carboxamide]
EC50: 38 nM
Emax: 100%

CC(NC(=O)c1cn(-c2ncc(F)cc2F)c2nc(N3CC4(COC4)C3)ccc2c1=O)C(F)(F)C(F)(F)F (single isomer, unassigned) [Example 181, 1-(3,5-Difluoropyridin-2-yl)-7-(2-oxa-6-azaspiro[3.3]hept-6-yl)-4-oxo-N-[3,3,4,4,4-pentafluorobutan-2-yl]-1,4-dihydro-1,8-naphthyridine-3-carboxamide]
EC50: 220 nM
Emax: 100%

CC(NC(=O)c1cn(-c2ncc(F)cc2F)c2nc(N3CC(CO)(CO)C3)ccc2c1=O)C(F)(F)C(F)(F)F (single isomer, unassigned) [Example 183, 7-[3,3-Bis(hydroxymethyl)azetidin-1-yl]-1-(3,5-difluoropyridin-2-yl)-4-oxo-N-[3,3,4,4,4-pentafluorobutan-2-yl]-1,4-dihydro-1,8-naphthyridine-3-carboxamide]
EC50: 53 nM
Emax: 100%

CC(NC(=O)c1cn(-c2ncc(F)cc2F)c2nc(N3CCC(CO)(CO)CC3)ccc2c1=O)C(F)(F)C(F)(F)F (single isomer, unassigned) [Example 185, 7-[4,4-Bis(hydroxymethyl)piperidin-1-yl]-1-(3,5-difluoropyridin-2-yl)-4-oxo-N-[3,3,4,4,4-pentafluorobutan-2-yl]-1,4-dihydro-1,8-naphthyridine-3-carboxamide]
EC50: 121 nM
Emax: 100%

C[C@H](NC(=O)c1cn(-c2ncc(F)cc2F)c2nc(N3C[C@@H](O)CC3=O)ccc2c1=O)C(F)(F)F [Example 3, 1-(3,5-Difluoropyridin-2-yl)-7-[(4S)-4-hydroxy-2-oxopyrrolidin-1-yl]-4-oxo-N-[(2S)-1,1,1-trifluoropropan-2-yl]-1,4-dihydro-1,8-naphthyridine-3-carboxamide]
EC50: 240 nM
Emax: 97.8%

O=C(NC(c1cccc(Cl)c1)C(F)(F)F)c1cn(-c2ncc(F)cc2F)c2nc(N3C[C@@H](O)CC3=O)ccc2c1=O (stereo partly drawn) [Example 7, N-[1-(3-Chlorophenyl)-2,2,2-trifluoroethyl]-1-(3,5-difluoropyridin-2-yl)-7-[(4S)-4-hydroxy-2-oxopyrrolidin-1-yl]-4-oxo-1,4-dihydro-1,8-naphthyridine-3-carboxamide]
EC50: 22 nM
Emax: 100%

O=C(NC(c1ccc(Cl)cc1)C(F)(F)F)c1cn(-c2ncc(F)cc2F)c2nc(N3C[C@@H](O)CC3=O)ccc2c1=O (stereo partly drawn) [Example 8, N-[1-(4-Chlorophenyl)-2,2,2-trifluoroethyl]-1-(3,5-difluoropyridin-2-yl)-7-[(4S)-4-hydroxy-2-oxopyrrolidin-1-yl]-4-oxo-1,4-dihydro-1,8-naphthyridine-3-carboxamide]
EC50: 83 nM
Emax: 100%

O=C(NC(c1c(F)cccc1F)C(F)(F)F)c1cn(-c2ncc(F)cc2F)c2nc(N3C[C@@H](O)CC3=O)ccc2c1=O (stereo partly drawn) [Example 9, N-[1-(2,6-Difluorophenyl)-2,2,2-trifluoroethyl]-1-(3,5-difluoropyridin-2-yl)-7-[(4S)-4-hydroxy-2-oxopyrrolidin-1-yl]-4-oxo-1,4-dihydro-1,8-naphthyridine-3-carboxamide]
EC50: 20 nM
Emax: 94.5%

O=C(NC(c1cccc(F)c1)C(F)(F)F)c1cn(-c2ncc(F)cc2F)c2nc(N3C[C@@H](O)CC3=O)ccc2c1=O (stereo partly drawn) [Example 10, 1-(3,5-Difluoropyridin-2-yl)-7-[(4S)-4-hydroxy-2-oxopyrrolidin-1-yl]-4-oxo-N-[2,2,2-trifluoro-1-(3-fluorophenyl)ethyl]-1,4-dihydro-1,8-naphthyridine-3-carboxamide]
EC50: 25 nM
Emax: 95.5%

CC[C@@H](NC(=O)c1cn(-c2ncc(F)cc2Cl)c2nc(N3C[C@@H](O)CC3=O)ccc2c1=O)C(F)(F)F [Example 20, 1-(3-Chloro-5-fluoropyridin-2-yl)-7-[(4S)-4-hydroxy-2-oxopyrrolidin-1-yl]-4-oxo-N-[(2R)-1,1,1-trifluorobutan-2-yl]-1,4-dihydro-1,8-naphthyridine-3-carboxamide]
EC50: 330 nM
Emax: 87%

O=C(N[C@H](C1CC1)C(F)(F)F)c1cn(-c2ncc(F)cc2Cl)c2nc(N3C[C@@H](O)CC3=O)ccc2c1=O [Example 21, 1-(3-Chloro-5-fluoropyridin-2-yl)-N-[(1R)-1-cyclopropyl-2,2,2-trifluoroethyl]-7-[(4S)-4-hydroxy-2-oxopyrrolidin-1-yl]-4-oxo-1,4-dihydro-1,8-naphthyridine-3-carboxamide]
EC50: 195 nM
Emax: 98.5%

O=C(N[C@H](C1CC1)C(F)(F)F)c1cn(-c2ncccc2Cl)c2nc(N3C[C@@H](O)CC3=O)ccc2c1=O [Example 22, 1-(3-Chloropyridin-2-yl)-N-[(1R)-1-cyclopropyl-2,2,2-trifluoroethyl]-7-[(4S)-4-hydroxy-2-oxopyrrolidin-1-yl]-4-oxo-1,4-dihydro-1,8-naphthyridine-3-carboxamide]
EC50: 575 nM
Emax: 85%

O=C(NC(c1cccc(F)c1)C(F)(F)F)c1cn(-c2ncccc2Cl)c2nc(N3C[C@@H](O)CC3=O)ccc2c1=O (stereo partly drawn) [Example 23, 1-(3-Chloropyridin-2-yl)-7-[(4S)-4-hydroxy-2-oxopyrrolidin-1-yl]-4-oxo-N-[2,2,2-trifluoro-1-(3-fluorophenyl)ethyl]-1,4-dihydro-1,8-naphthyridine-3-carboxamide]
EC50: 145 nM
Emax: 92%

CC[C@H](NC(=O)c1cn(-c2c(F)cncc2F)c2nc(N3C[C@@H](O)CC3=O)ccc2c1=O)C(F)(F)F [Example 24, 1-(3,5-Difluoropyridin-4-yl)-7-[(4S)-4-hydroxy-2-oxopyrrolidin-1-yl]-4-oxo-N-[(2S)-1,1,1-trifluorobutan-2-yl]-1,4-dihydro-1,8-naphthyridine-3-carboxamide]
EC50: 560 nM
Emax: 87%

O=C(NC(C1CC1)C(F)(F)F)c1cn(-c2ncc(F)cc2F)c2nc(N3CC[C@H](O)C3=O)ccc2c1=O (stereo partly drawn) [Example 25, N-[1-Cyclopropyl-2,2,2-trifluoroethyl]-1-(3,5-difluoropyridin-2-yl)-7-[(3S)-3-hydroxy-2-oxopyrrolidin-1-yl]-4-oxo-1,4-dihydro-1,8-naphthyridine-3-carboxamide]
EC50: 210 nM
Emax: 98%

O=C(NC(C1CC1)C(F)(F)F)c1cn(-c2ncc(F)cc2F)c2nc(N3CC[C@@H](O)C3=O)ccc2c1=O (stereo partly drawn) [Example 26, N-[1-Cyclopropyl-2,2,2-trifluoroethyl]-1-(3,5-difluoropyridin-2-yl)-7-[(3R)-3-hydroxy-2-oxopyrrolidin-1-yl]-4-oxo-1,4-dihydro-1,8-naphthyridine-3-carboxamide]
EC50: 200 nM
Emax: 94.5%

CC[C@H](NC(=O)c1cn(-c2ncc(F)cc2F)c2nc(N3C(=O)C(C)(C)C(O)C34CC4)ccc2c1=O)C(F)(F)F (stereo partly drawn) [Example 31, 1-(3,5-Difluoropyridin-2-yl)-7-[7-hydroxy-6,6-dimethyl-5-oxo-4-azaspiro[2.4]hept-4-yl]-4-oxo-N-[(2S)-1,1,1-trifluorobutan-2-yl]-1,4-dihydro-1,8-naphthyridine-3-carboxamide]
EC50: 645 nM
Emax: 88.5%

CC1(C)C(=O)N(c2ccc3c(=O)c(C(=O)N[C@H](C4CC4)C(F)(F)F)cn(-c4ncc(F)cc4F)c3n2)C2(CC2)C1O (stereo partly shown) [Example 32]
EC50: 400 nM
Emax: 89.5%
